Measured values taken from ChEMBL document CHEMBL5053560, “Nanoparticular Inhibitors of Flavivirus Proteases from Zika, West Nile and Dengue Virus Are Cell-Permeable Antivirals” (ACS Med Chem Lett, 2021).

Tests used:
West Nile virus = test: Antiviral activity against West Nile virus infected in human Huh-7 cells assessed as inhibition of viral replication at 12.5 uM measured after 48 hrs by plaque assay relative to control; assay type: functional
Zika virus = test: Antiviral activity against Zika virus infected in human Huh-7 cells assessed as inhibition of viral replication at 12.5 uM measured after 48 hrs by Renilla reporter based luciferase assay relative to control; assay type: functional
Nonstructural protein 3 [1] = biological target: T1, Nonstructural protein 3 (Zika virus, UniProt A0A024AXB9); test: Competitive inhibition of C-terminal His-tagged ZIKV NSB2 (52 to 96 amino acids)-NS3 (1 to 184 amino acids) protease expressed in Escherichia coli BL21(DE3) preincubated for 10 mins followed by addition of Boc-GKR-AMC substrate and measured by flourescence based plate reader assay
T1 sequence (A0A024AXB9 whole entry, the tested form may be a part): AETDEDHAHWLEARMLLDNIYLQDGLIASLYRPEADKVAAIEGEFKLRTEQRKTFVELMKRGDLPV

Genome polyprotein [2] = biological target: T2, Genome polyprotein (West Nile virus, UniProt P06935); test: Inhibition of C-terminal His-tagged WNV NSB2 (52 to 96 amino acids)-NS3 (1 to 184 amino acids) protease expressed in Escherichia coli BL21(DE3) using Boc-GRK-AMC as substrate measured by flourescence based plate reader assay
T2 sequence (P06935 1371-1501 limits assumed): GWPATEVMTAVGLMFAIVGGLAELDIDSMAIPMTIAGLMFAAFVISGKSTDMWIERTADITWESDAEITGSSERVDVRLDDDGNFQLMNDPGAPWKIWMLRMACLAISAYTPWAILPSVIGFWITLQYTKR
T2 sequence (P06935 1502-2120 limits assumed): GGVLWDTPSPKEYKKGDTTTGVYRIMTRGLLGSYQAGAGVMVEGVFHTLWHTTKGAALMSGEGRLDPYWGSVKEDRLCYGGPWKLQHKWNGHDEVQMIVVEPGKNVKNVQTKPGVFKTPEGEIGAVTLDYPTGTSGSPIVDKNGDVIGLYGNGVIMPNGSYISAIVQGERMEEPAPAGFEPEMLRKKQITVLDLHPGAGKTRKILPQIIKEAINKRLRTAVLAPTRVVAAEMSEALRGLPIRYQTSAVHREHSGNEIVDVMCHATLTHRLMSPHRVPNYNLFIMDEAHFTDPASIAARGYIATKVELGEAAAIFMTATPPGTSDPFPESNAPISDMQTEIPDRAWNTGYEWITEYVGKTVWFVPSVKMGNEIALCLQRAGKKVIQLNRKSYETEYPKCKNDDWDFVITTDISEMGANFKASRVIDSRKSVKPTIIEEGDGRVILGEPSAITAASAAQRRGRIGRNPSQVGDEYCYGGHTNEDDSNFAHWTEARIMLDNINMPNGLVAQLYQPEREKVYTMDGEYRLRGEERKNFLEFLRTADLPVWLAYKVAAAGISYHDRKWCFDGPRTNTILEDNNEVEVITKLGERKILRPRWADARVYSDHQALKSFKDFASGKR

Genome polyprotein [3] = biological target: T3, Genome polyprotein (dengue virus type 2, UniProt P29990); test: Inhibition of recombinant N-terminal His-tagged DENV NS2B-NS3 protease expressed in Escherichia coli BL21(DE3) using Boc-GRR-AMC as substrate measured by flourescence based plate reader assay
T3 sequence (P29990 1346-1475 limits assumed): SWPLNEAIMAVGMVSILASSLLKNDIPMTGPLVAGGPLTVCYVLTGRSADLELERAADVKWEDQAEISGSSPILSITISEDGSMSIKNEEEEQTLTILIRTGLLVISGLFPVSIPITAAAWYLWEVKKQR
T3 sequence (P29990 1476-2093 limits assumed): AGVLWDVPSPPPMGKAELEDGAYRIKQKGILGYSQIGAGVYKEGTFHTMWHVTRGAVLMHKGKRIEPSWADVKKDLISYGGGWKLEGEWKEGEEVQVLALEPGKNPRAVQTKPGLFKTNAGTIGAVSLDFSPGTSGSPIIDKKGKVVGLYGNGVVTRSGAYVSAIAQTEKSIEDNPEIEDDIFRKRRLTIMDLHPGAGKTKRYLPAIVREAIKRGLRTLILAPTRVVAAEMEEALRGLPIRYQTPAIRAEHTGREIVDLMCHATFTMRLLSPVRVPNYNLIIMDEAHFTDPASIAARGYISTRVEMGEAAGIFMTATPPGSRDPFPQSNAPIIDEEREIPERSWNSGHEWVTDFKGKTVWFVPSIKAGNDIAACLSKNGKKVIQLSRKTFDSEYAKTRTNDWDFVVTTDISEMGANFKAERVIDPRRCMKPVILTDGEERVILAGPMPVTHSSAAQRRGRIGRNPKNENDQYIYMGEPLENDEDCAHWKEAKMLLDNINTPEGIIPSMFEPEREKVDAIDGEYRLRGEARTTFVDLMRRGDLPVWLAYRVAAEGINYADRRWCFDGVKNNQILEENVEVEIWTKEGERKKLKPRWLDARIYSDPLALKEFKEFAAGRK

Nonstructural protein 3 [4] = biological target: T1, Nonstructural protein 3; test: Inhibition of C-terminal His-tagged ZIKV NSB2 (52 to 96 amino acids)-NS3 (1 to 184 amino acids) protease expressed in Escherichia coli BL21(DE3) preincubated for 10 mins followed by addition of Boc-GKR-AMC substrate and measured by flourescence based plate reader assay
Genome polyprotein [5] = biological target: T3, Genome polyprotein; test: Competitive inhibition of recombinant N-terminal His-tagged DENV NS2B-NS3 protease expressed in Escherichia coli BL21(DE3) using Boc-GRR-AMC as substrate measured by flourescence based plate reader assay
Genome polyprotein [6] = biological target: T2, Genome polyprotein; test: Competitive inhibition of C-terminal His-tagged WNV NSB2 (52 to 96 amino acids)-NS3 (1 to 184 amino acids) protease expressed in Escherichia coli BL21(DE3) using Boc-GRK-AMC as substrate measured by flourescence based plate reader assay

| SMILES | inhibition at 12.5 µM (West Nile virus) [%] | inhibition at 12.5 µM (Zika virus) [%] | Ki (Nonstructural protein 3 [1]) [nM] | IC50 (Genome polyprotein [2]) [nM] | IC50 (Genome polyprotein [3]) [nM] | IC50 (Nonstructural protein 3 [4]) [nM] | Ki (Genome polyprotein [5]) [nM] | Ki (Genome polyprotein [6]) [nM] |
| --- | --- | --- | --- | --- | --- | --- | --- | --- |
| NC(=O)c1ncn([C@@H]2O[C@H](CO)[C@@H](O)[C@H]2O)n1 [RIBAVIRIN] | 90 | 80 | – | – | – | – | – | – |
| N=C(N)N[C@H]1CC[C@H](CNC(=O)[C@H](CCCCN)NC(=O)[C@H](CCCCN)NC(=O)Cc2ccc(OCCCCS)cc2)CC1 | – | – | 79 | 460 | 17100 | 125 | 12700 | 343 |
